According to ChEMBL document CHEMBL4507272 (2021):

Columns and labels:
[1] = target: Serine/threonine-protein kinase ULK1 (Homo sapiens) (UniProt O75385); conditions: Compound concentration 1000.0 nM
[2] = target: Mitogen-activated protein kinase 13 (Homo sapiens) (UniProt O15264); conditions: Compound concentration 1000.0 nM
[3] = target: Tyrosine-protein kinase receptor Tie-1 (Homo sapiens) (UniProt P35590); conditions: Compound concentration 1000.0 nM
[4] = test system: Receptor-type tyrosine-protein kinase FLT3 (Homo sapiens), P36888 [UNDEFINED MUTATION]; conditions: Compound concentration 1000.0 nM
[5] = target: Dual specificity protein kinase CLK4 (Homo sapiens) (UniProt Q9HAZ1); conditions: Compound concentration 1000.0 nM
[6] = target: Inhibitor of nuclear factor kappa-B kinase subunit beta (Homo sapiens) (UniProt O14920); conditions: Compound concentration 1000.0 nM
Inhibitor of nuclear factor kappa-B kinase subunit beta (Homo sapiens), sequence (O14920 whole entry): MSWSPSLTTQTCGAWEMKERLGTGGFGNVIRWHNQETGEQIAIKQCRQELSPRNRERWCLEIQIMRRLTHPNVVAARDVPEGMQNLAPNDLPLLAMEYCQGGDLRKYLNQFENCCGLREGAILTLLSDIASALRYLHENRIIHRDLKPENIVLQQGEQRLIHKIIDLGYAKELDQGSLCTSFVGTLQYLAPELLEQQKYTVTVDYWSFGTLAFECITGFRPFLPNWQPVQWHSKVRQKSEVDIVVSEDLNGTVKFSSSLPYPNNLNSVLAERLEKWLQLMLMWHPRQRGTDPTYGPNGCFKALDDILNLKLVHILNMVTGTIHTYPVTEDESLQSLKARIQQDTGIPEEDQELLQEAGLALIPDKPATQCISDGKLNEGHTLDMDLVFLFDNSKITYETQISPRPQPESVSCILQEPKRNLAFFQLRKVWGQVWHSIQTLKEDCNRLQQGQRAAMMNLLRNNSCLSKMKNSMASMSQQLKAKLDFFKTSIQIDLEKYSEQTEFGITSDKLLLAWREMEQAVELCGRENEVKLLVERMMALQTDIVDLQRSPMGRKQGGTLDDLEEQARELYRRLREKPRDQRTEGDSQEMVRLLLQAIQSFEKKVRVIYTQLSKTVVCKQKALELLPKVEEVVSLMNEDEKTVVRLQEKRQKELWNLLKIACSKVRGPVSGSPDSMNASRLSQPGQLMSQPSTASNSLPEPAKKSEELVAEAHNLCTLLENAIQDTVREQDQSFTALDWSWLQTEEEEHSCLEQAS

[7] = target: Non-receptor tyrosine-protein kinase TNK1 (Homo sapiens) (UniProt Q13470); conditions: Compound concentration 1000.0 nM
[8] = target: Serine/threonine-protein kinase D3 (Homo sapiens) (UniProt O94806); conditions: Compound concentration 1000.0 nM
[9] = target: Serine/threonine-protein kinase TNNI3K (Homo sapiens) (UniProt Q59H18); conditions: Compound concentration 1000.0 nM
[10] = target: Alpha-2A adrenergic receptor (Homo sapiens) (UniProt P08913); conditions: Compound concentration 10.0 uM
[11] = test system: Receptor-type tyrosine-protein kinase FLT3 (Homo sapiens), P36888 [R834Q]; conditions: Compound concentration 1000.0 nM
[12] = target: Calcium/calmodulin-dependent protein kinase type IV (Homo sapiens) (UniProt Q16566); conditions: Compound concentration 1000.0 nM
[13] = test system: Phosphatidylinositol 4,5-bisphosphate 3-kinase catalytic subunit alpha isoform (Homo sapiens), P42336 [Q546K]; conditions: Compound concentration 1000.0 nM
Phosphatidylinositol 4,5-bisphosphate 3-kinase catalytic subunit alpha isoform (Homo sapiens), P42336 [Q546K], sequence (P42336 whole entry Q546K, canonical isoform): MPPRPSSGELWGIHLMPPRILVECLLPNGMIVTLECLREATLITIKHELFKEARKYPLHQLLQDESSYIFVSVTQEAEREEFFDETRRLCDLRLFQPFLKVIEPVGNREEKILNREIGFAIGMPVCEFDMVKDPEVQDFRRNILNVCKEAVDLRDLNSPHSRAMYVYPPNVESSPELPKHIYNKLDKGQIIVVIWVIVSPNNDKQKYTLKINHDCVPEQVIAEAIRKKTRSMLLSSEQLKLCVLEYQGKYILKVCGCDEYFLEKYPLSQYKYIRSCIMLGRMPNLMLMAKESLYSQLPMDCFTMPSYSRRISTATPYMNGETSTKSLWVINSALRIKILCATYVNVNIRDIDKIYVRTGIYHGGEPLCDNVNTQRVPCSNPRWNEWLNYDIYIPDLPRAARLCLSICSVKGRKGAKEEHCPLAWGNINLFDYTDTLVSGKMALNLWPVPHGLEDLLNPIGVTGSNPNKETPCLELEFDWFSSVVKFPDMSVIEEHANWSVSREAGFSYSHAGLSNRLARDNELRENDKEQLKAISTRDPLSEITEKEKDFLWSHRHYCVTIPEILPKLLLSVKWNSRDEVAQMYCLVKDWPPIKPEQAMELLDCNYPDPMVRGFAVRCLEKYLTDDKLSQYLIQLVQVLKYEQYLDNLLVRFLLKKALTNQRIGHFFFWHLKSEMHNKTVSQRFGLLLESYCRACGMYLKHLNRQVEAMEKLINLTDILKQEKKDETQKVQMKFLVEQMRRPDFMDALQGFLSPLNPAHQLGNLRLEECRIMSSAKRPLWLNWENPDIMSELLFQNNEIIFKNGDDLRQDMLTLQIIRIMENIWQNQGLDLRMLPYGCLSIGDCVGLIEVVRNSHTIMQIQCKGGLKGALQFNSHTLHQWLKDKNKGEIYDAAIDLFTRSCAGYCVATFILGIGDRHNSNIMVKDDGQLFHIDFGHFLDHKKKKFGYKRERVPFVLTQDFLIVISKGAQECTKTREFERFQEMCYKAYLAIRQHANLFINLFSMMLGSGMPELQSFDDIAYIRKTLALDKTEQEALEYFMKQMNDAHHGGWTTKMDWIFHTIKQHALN

[14] = target: Activin receptor type-1 (Homo sapiens) (UniProt Q04771); conditions: Compound concentration 1000.0 nM
[15] = target: Serine/threonine-protein kinase MARK1 (Homo sapiens) (UniProt Q9P0L2); conditions: Compound concentration 1000.0 nM
[16] = test system: Epidermal growth factor receptor (Homo sapiens), P00533 [UNDEFINED MUTATION]; conditions: Compound concentration 1000.0 nM
[17] = target: Mitogen-activated protein kinase kinase kinase 19 (Homo sapiens) (UniProt Q56UN5); conditions: Compound concentration 1000.0 nM
Mitogen-activated protein kinase kinase kinase 19 (Homo sapiens), sequence (Q56UN5 whole entry): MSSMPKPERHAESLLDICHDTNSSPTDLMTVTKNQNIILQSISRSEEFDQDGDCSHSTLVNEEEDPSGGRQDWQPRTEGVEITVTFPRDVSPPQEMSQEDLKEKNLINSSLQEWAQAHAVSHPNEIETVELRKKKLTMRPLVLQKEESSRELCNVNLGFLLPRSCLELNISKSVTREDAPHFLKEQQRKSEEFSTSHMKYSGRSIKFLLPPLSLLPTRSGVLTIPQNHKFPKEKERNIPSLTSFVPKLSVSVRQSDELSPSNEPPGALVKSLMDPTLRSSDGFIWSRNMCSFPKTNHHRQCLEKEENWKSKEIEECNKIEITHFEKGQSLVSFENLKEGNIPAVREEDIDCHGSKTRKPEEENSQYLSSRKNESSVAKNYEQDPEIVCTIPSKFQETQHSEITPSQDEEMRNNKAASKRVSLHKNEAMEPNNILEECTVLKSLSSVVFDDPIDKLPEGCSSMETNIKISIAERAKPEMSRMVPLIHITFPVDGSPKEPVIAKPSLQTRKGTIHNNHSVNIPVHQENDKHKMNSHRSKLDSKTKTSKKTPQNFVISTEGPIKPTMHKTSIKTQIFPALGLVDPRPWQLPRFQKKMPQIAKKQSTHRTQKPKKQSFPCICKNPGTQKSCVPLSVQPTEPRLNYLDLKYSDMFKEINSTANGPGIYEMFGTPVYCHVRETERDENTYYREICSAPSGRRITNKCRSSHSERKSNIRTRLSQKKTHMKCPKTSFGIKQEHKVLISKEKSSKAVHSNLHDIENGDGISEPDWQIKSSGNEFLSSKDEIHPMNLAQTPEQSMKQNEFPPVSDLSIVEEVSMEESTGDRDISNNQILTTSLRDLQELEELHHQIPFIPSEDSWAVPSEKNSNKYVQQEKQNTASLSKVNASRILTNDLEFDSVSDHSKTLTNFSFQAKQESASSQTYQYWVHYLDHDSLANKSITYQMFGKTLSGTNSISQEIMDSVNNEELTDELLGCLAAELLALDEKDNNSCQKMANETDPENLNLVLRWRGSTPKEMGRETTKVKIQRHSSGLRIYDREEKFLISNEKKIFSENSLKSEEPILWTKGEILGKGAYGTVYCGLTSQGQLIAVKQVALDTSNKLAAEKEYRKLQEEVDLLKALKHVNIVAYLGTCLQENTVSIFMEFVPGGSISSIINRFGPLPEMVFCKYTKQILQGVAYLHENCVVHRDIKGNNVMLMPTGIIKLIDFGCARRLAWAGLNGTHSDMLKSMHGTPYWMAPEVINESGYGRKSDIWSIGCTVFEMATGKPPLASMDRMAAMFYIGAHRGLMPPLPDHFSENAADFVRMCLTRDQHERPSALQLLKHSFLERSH

[18] = target: 1-phosphatidylinositol 3-phosphate 5-kinase (Homo sapiens) (UniProt Q9Y2I7); conditions: Compound concentration 1000.0 nM
[19] = target: Serine/threonine-protein kinase 32C (Homo sapiens) (UniProt Q86UX6); conditions: Compound concentration 1000.0 nM
[20] = target: Myosin-IIIb (Homo sapiens) (UniProt Q8WXR4); conditions: Compound concentration 1000.0 nM
[21] = target: Casein kinase I isoform alpha (Homo sapiens) (UniProt P48729); conditions: Compound concentration 1000.0 nM
Casein kinase I isoform alpha (Homo sapiens), sequence (P48729 2-337 limits assumed): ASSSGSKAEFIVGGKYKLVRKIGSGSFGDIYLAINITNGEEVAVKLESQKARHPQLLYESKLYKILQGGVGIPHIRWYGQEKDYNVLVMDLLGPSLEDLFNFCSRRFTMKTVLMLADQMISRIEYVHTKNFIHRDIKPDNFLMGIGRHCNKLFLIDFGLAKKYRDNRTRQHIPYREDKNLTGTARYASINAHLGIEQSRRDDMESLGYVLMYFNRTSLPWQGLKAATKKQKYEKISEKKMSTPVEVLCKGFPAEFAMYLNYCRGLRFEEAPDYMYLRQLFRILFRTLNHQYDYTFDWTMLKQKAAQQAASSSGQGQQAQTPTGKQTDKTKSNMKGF

[22] = target: Dual specificity mitogen-activated protein kinase kinase 5 (Homo sapiens) (UniProt Q13163); conditions: Compound concentration 1000.0 nM
Dual specificity mitogen-activated protein kinase kinase 5 (Homo sapiens), sequence (Q13163 whole entry): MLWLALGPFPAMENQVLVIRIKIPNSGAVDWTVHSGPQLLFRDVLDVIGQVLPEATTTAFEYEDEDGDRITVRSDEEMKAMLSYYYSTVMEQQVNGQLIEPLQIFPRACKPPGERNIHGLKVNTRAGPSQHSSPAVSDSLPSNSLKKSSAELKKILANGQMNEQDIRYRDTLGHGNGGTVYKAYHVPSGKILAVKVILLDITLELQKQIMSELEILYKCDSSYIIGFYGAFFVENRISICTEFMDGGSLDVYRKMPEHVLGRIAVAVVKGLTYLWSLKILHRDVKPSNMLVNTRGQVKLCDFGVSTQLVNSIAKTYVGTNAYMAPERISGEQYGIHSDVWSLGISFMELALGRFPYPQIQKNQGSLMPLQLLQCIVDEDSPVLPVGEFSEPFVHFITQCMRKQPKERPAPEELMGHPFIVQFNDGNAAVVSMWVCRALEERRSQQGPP

[23] = target: Dual specificity mitogen-activated protein kinase kinase 6 (Homo sapiens) (UniProt P52564); conditions: Compound concentration 1000.0 nM
[24] = target: Histamine H1 receptor (Homo sapiens) (UniProt P35367); conditions: Compound concentration 10.0 uM
[25] = target: Serine/threonine-protein kinase DCLK3 (Homo sapiens) (UniProt Q9C098); conditions: Compound concentration 1000.0 nM
Serine/threonine-protein kinase DCLK3 (Homo sapiens), sequence (Q9C098 whole entry): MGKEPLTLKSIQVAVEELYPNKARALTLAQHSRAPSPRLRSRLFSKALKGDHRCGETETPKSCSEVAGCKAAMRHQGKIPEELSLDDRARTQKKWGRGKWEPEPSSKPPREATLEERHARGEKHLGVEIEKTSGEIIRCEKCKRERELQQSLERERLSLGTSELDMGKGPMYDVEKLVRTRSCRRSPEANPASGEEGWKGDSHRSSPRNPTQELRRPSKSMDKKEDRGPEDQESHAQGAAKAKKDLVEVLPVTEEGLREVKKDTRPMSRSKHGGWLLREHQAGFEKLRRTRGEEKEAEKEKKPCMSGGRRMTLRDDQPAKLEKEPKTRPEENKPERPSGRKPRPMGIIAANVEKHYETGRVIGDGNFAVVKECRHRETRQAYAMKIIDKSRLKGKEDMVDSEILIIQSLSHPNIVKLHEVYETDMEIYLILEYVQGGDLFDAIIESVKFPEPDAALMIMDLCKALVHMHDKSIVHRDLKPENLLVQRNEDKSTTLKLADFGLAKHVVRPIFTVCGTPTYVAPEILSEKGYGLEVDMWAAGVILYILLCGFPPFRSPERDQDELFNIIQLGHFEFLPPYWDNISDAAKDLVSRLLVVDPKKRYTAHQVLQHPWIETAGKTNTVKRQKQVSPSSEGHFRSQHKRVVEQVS

[26] = target: Histamine H2 receptor (Homo sapiens) (UniProt P25021); conditions: Compound concentration 10.0 uM
Histamine H2 receptor (Homo sapiens), sequence (P25021 whole entry): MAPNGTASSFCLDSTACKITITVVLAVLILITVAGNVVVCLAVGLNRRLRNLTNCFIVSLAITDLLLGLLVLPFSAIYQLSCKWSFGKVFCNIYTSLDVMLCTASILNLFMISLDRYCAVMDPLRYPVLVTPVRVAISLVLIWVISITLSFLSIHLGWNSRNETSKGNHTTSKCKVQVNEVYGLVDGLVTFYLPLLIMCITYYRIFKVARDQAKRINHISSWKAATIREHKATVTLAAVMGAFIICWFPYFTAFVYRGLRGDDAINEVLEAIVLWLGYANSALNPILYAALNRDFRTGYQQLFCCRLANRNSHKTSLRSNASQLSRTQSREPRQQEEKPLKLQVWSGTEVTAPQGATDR

[27] = target: Membrane-associated tyrosine- and threonine-specific cdc2-inhibitory kinase (Homo sapiens) (UniProt Q99640); conditions: Compound concentration 1000.0 nM
[28] = target: Serine/threonine-protein kinase B-raf (Homo sapiens) (UniProt P15056); conditions: Compound concentration 1000.0 nM
[29] = target: Serine/threonine-protein kinase 17A (Homo sapiens) (UniProt Q9UEE5); conditions: Compound concentration 1000.0 nM
[30] = target: Dual specificity tyrosine-phosphorylation-regulated kinase 2 (Homo sapiens) (UniProt Q92630); conditions: Compound concentration 1000.0 nM
[31] = test system: Tyrosine-protein kinase ABL1 (Homo sapiens), P00519 [F317L]; conditions: Compound concentration 1000.0 nM
[32] = target: Serine/threonine-protein kinase 36 (Homo sapiens) (UniProt Q9NRP7); conditions: Compound concentration 1000.0 nM
[33] = target: Mitogen-activated protein kinase 9 (Homo sapiens) (UniProt P45984); conditions: Compound concentration 1000.0 nM
[34] = target: Inhibitor of nuclear factor kappa-B kinase subunit alpha (Homo sapiens) (UniProt O15111); conditions: Compound concentration 1000.0 nM
[35] = target: MAP kinase-activated protein kinase 2 (Homo sapiens) (UniProt P49137); conditions: Compound concentration 1000.0 nM
[36] = target: Casein kinase II subunit alpha (Homo sapiens) (UniProt P68400); conditions: Compound concentration 1000.0 nM
[37] = test system: Tyrosine-protein kinase ABL1 (Homo sapiens), P00519 [M351T]; conditions: Compound concentration 1000.0 nM
[38] = target: Cyclin-dependent kinase 9 (Homo sapiens) (UniProt P50750); conditions: Compound concentration 1000.0 nM
[39] = target: Serine/threonine-protein kinase BRSK2 (Homo sapiens) (UniProt Q8IWQ3); conditions: Compound concentration 1000.0 nM
[40] = target: Tyrosine-protein kinase Srms (Homo sapiens) (UniProt Q9H3Y6); conditions: Compound concentration 1000.0 nM
[41] = target: Cyclin-G-associated kinase (Homo sapiens) (UniProt O14976); conditions: Compound concentration 1000.0 nM
[42] = test system: Tyrosine-protein kinase ABL1 (Homo sapiens), P00519 [H396P]; conditions: Compound concentration 1000.0 nM
[43] = target: Serine/threonine-protein kinase TAO1 (Homo sapiens) (UniProt Q7L7X3); conditions: Compound concentration 1000.0 nM
[44] = test system: Receptor-type tyrosine-protein kinase FLT3 (Homo sapiens), P36888 [D835H]; conditions: Compound concentration 1000.0 nM
[45] = target: Serine/threonine-protein kinase Sgk2 (Homo sapiens) (UniProt Q9HBY8); conditions: Compound concentration 1000.0 nM

CC(=O)C1=C(C)N(c2cccc(C(F)(F)F)c2)C(=O)N[C@@H]1c1ccc(C#N)nc1 [BAY-678]
inactive: residual activity [1] 100% | residual activity [2] 74.6% | residual activity [3] 89.9% | residual activity [4] 87.4% | residual activity [5] 88.3% | residual activity [6] 100% | residual activity [7] 62.1% | residual activity [8] 78% | residual activity [9] 99.7% | inhibition [10] 10.5% | residual activity [11] 83.6% | residual activity [12] 54.3% | residual activity [13] 100% | residual activity [14] 74.5% | residual activity [15] 100% | residual activity [16] 100% | residual activity [17] 93% | residual activity [18] 90% | residual activity [19] 94.1% | residual activity [20] 78.3% | residual activity [21] 91.5% | residual activity [22] 100% | residual activity [23] 94.6% | inhibition [24] 34.1% | residual activity [25] 53.9% | inhibition [26] 14.5% | residual activity [27] 90.6% | residual activity [28] 78.5% | residual activity [29] 93.7% | residual activity [30] 100% | residual activity [31] 100% | residual activity [32] 100% | residual activity [33] 100% | residual activity [34] 100% | residual activity [35] 82.6% | residual activity [36] 94.8% | residual activity [37] 100% | residual activity [38] 100% | residual activity [39] 100% | residual activity [40] 97.9% | residual activity [41] 97.2% | residual activity [42] 100% | residual activity [43] 100% | residual activity [44] 100% | residual activity [45] 100%
